Reference: US20250304620A1, “ANTIMICROBIAL PEPTIDE AND APPLICATION THEREOF” (priority 2023, published 2025)
Values after ≈ are worked out from the molar mass of the structure shown. Marks after values point to notes of the source that are not given here. Non-standard residues stand in square brackets, D forms with d. Residues, ends and D or L forms follow the SMILES beside them. dPhe(3,4-F2) = N[C@H](Cc1ccc(F)c(F)c1)C(=O)O

Assays:
[1] = system: Staphylococcus aureus (NRS 384); assay: microbe, parasite or virus in culture; format: cell-based; conditions: NRS 384
In short: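 CLSI broth microdilution with serial twofold dilutions gave MICs against S. aureus NRS 384, with 5 parallel replicates. Levofloxacin and the AMP Cbf-K16 served as positive controls.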

[2] = system: Staphylococcus aureus (NRS 384); conditions: NRS 384, 3 h
Experimental: Trypsin (250 U/mg, pH=8.0) and AMPs (LV-1 to LV-30) were mixed in a ratio of 1:10 (w/w) and added to a reaction buffer (0.2 M sodium phosphate, 1 mM CaCl2), pH 7.5), and then incubated at 37° C. for 3 h.

[3] = system: Candida albicans ATCC MYA-2876; format: cell-based
In short: (§1)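 MICs were determined by serial twofold dilution in microdilution format, following CLSI antimicrobial susceptibility testing standards. Each determination was repeated 5 times in parallel.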

[4] = system: Salmonella typhimurium ATCC 14028; format: cell-based
In short: as §1

[5] = system: Candida tropicalis ATCC 750; format: cell-based
In short: as §1

Candida krusei ATCC 6258 = format: cell-based
In short: as §1

[6] = system: Corynebacterium ATCC 7715; format: cell-based
In short: as §1

[7] = system: Pseudomonas aeruginosa ATCC 27853; format: cell-based
In short: as §1

[8] = system: Escherichia coli ATCC 25922; format: cell-based
In short: as §1

[9] = system: Staphylococcus aureus ATCC 25923; format: cell-based
In short: as §1

[10] = system: Bacillus subtilis ATCC 6633; format: cell-based
In short: as §1

[11] = system: Candida glabrata ATCC 15126; format: cell-based
In short: as §1

[12] = system: Serratia marcescens ATCC 29021; format: cell-based
In short: as §1

[13] = system: Trichophyton ATCC MYA-4438; format: cell-based
In short: as §1

Enterococcus ATCC 29212 = format: cell-based
In short: as §1

Candida utilis ATCC 9950 = format: cell-based
In short: as §1

[14] = system: Klebsiella pneumoniae ATCC 700603; format: cell-based
In short: as §1

[15] = system: Pseudomonas aeruginosa ATCC 27853; assay: Injectable formulations on mice infected with peritonitis; format: in vivo, ICR mice; conditions: twice a day for 3 days; for Number of mice that died on each day after infection: day 1 / Number of mice that died on each day after infection: day 2 / Number of mice that died on each day after infection: day 3 / Number of mice that died on each day after infection: day 4 / Number of mice that died on each day after infection: day 5 / Average survival times (Days): n = 10; for Average survival times (Days): observed for 14 d
In short: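 ICR mice of both sexes (10 per group) infected intraperitoneally with 0.2 mL P. aeruginosa ATCC 27853 at 1×10^9 CFU/mL. Injectable formulations dosed by body weight via tail vein twice daily for 3 days; deaths and survival time recorded over 14 d.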

[16] = system: Escherichia coli ATCC 25922; assay: Oral formulations on mice with systemic bacterial infection; format: in vivo, ICR mice; conditions: three times a day for 7 days; for Number of mice that died on each day after infection: day 4 / Number of mice that died on each day after infection: day 5 / Number of mice that died on each day after infection: day 6 / Number of mice that died on each day after infection: day 7 / Number of mice that died on each day after infection: day 8 / Average survival times (Days): n = 10; for Average survival times (Days): observed for 14 d
In short: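 ICR mice of both sexes, 10 per group, infected i.p. with 0.2 mL E. coli ATCC 25922 at 1×10^7 CFU/mL. Compounds gavaged by body weight immediately after infection, three times daily for 7 days; deaths and survival time recorded over 14 d observation.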

CC(=O)N[C@H](CCCCN)C(=O)N[C@H](CCCCN)C(=O)N[C@H](CC(C)C)C(=O)N[C@H](CC(C)C)C(=O)N[C@H](Cc1ccc(F)c(F)c1)C(=O)N[C@H](CCCNC(=N)N)C(=O)N[C@H](CC(C)C)C(=O)N[C@H](CCCCN)C(=O)N[C@H](Cc1ccc(F)c(F)c1)C(=O)N[C@H](CCCNC(=N)N)C(=O)N[C@H](CCCCN)C(N)=O [LV-25] (Ac-[dK][dK][dL][dL][dPhe(3,4-F2)][dR][dL][dK][dPhe(3,4-F2)][dR][dK]-NH2)
MIC against Staphylococcus aureus (NRS 384) [1]: 1 mg/L (≈ 0.629 µM)
Trypsin MIC [2]: 1 mg/L
MIC Candida albicans ATCC MYA-2876 [3]: 8 mg/L (≈ 5.03 µM)
MIC Salmonella typhimurium ATCC 14028 [4]: 1 mg/L (≈ 0.629 µM)
MIC Candida tropicalis ATCC 750 [5]: 8 mg/L (≈ 5.03 µM)
MIC Candida krusei ATCC 6258 (Candida krusei ATCC 6258): 8 mg/L (≈ 5.03 µM)
MIC Corynebacterium ATCC 7715 [6]: 2 mg/L (≈ 1.26 µM)
MIC Pseudomonas aeruginosa ATCC 27853 [7]: 1 mg/L (≈ 0.629 µM)
MIC Escherichia coli ATCC 25922 [8]: 1 mg/L (≈ 0.629 µM)
MIC Staphylococcus aureus ATCC 25923 [9]: 2 mg/L (≈ 1.26 µM)
MIC Bacillus subtilis ATCC 6633 [10]: 8 mg/L (≈ 5.03 µM)
MIC Candida glabrata ATCC 15126 [11]: 8 mg/L (≈ 5.03 µM)
MIC Serratia marcescens ATCC 29021 [12]: 4 mg/L (≈ 2.52 µM)
MIC Trichophyton ATCC MYA-4438 [13]: 8 mg/L (≈ 5.03 µM)
MIC Enterococcus ATCC 29212 (Enterococcus ATCC 29212): 2 mg/L (≈ 1.26 µM)
MIC Candida utilis ATCC 9950 (Candida utilis ATCC 9950): 8 mg/L (≈ 5.03 µM)
MIC Klebsiella pneumoniae ATCC 700603 [14]: 8 mg/L (≈ 5.03 µM)
Number of mice that died on each day after infection: day 1 ([15]; 0.2 mg/kg via tail vein): 2 Mouse
Number of mice that died on each day after infection: day 2 ([15]; 0.2 mg/kg via tail vein): 1 Mouse
Number of mice that died on each day after infection: day 3 ([15]; 0.2 mg/kg via tail vein): 1 Mouse
Number of mice that died on each day after infection: day 4 ([15]; 0.2 mg/kg via tail vein): 1 Mouse
Number of mice that died on each day after infection: day 5 ([15]; 0.2 mg/kg via tail vein): 1 Mouse
Average survival times (Days) ([15]; 0.2 mg/kg via tail vein): 7.2** Days
Number of mice that died on each day after infection: day 1 ([15]; 1 mg/kg via tail vein): 0 Mouse
Number of mice that died on each day after infection: day 2 ([15]; 1 mg/kg via tail vein): 1 Mouse
Number of mice that died on each day after infection: day 3 ([15]; 1 mg/kg via tail vein): 1 Mouse
Number of mice that died on each day after infection: day 4 ([15]; 1 mg/kg via tail vein): 0 Mouse
Number of mice that died on each day after infection: day 5 ([15]; 1 mg/kg via tail vein): 1 Mouse
Average survival times (Days) ([15]; 1 mg/kg via tail vein): 10.8**** Days
Number of mice that died on each day after infection: day 1 ([15]; 5 mg/kg via tail vein): 0 Mouse
Number of mice that died on each day after infection: day 2 ([15]; 5 mg/kg via tail vein): 3 Mouse
Number of mice that died on each day after infection: day 3 ([15]; 5 mg/kg via tail vein): 0 Mouse
Number of mice that died on each day after infection: day 4 ([15]; 5 mg/kg via tail vein): 0 Mouse
Number of mice that died on each day after infection: day 5 ([15]; 5 mg/kg via tail vein): 0 Mouse
Average survival times (Days) ([15]; 5 mg/kg via tail vein): 10.4**** Days
survival time of mice infected with Pseudomonas aeruginosa ([15]; tail vein, observed 14 d): superior to those of the Levofloxacin group
Number of mice that died on each day after infection: day 4 ([16]; 0.2 mg/kg gavage): 1 Mouse
Number of mice that died on each day after infection: day 5 ([16]; 0.2 mg/kg gavage): 1 Mouse
Number of mice that died on each day after infection: day 6 ([16]; 0.2 mg/kg gavage): 2 Mouse
Number of mice that died on each day after infection: day 7 ([16]; 0.2 mg/kg gavage): 2 Mouse
Number of mice that died on each day after infection: day 8 ([16]; 0.2 mg/kg gavage): 1 Mouse
Average survival times (Days) ([16]; 0.2 mg/kg gavage): 8.5** Days
Number of mice that died on each day after infection: day 4 ([16]; 1 mg/kg gavage): 1 Mouse
Number of mice that died on each day after infection: day 5 ([16]; 1 mg/kg gavage): 1 Mouse
Number of mice that died on each day after infection: day 6 ([16]; 1 mg/kg gavage): 0 Mouse
Number of mice that died on each day after infection: day 7 ([16]; 1 mg/kg gavage): 1 Mouse
Number of mice that died on each day after infection: day 8 ([16]; 1 mg/kg gavage): 1 Mouse
Average survival times (Days) ([16]; 1 mg/kg gavage): 10.8*** Days
Number of mice that died on each day after infection: day 4 ([16]; 5 mg/kg gavage): 0 Mouse
Number of mice that died on each day after infection: day 5 ([16]; 5 mg/kg gavage): 3 Mouse
Number of mice that died on each day after infection: day 6 ([16]; 5 mg/kg gavage): 0 Mouse
Number of mice that died on each day after infection: day 7 ([16]; 5 mg/kg gavage): 2 Mouse
Number of mice that died on each day after infection: day 8 ([16]; 5 mg/kg gavage): 0 Mouse
Average survival times (Days) ([16]; 5 mg/kg gavage): 9.9** Days
survival time of mice infected with Escherichia coli ([16]; gavage, observed 14 d): superior to those of the Levofloxacin group
